The test system of one assay is SNAP-GLP-1R. Briefly: Nb37 bystander NanoBiT, plasma membrane (CAAX), GLP-1R. Format: cell-based, human. The following applies: 30-minute AUC, n = 4. From the text: The Nb37 assay constructs were kindly provided by Prof. Asuka Inoue, Tohoku University, Japan. Nb37 (gene synthesized by GenScript with codon optimization) was C-terminally fused to SmBiT with a 15 amino acid flexible linker ([…]), and the resulting construct referred to as Nb37-SmBiT. The C-terminal KRAS CAAX motif ([…]) was N-terminally fused with LgBiT (LgBiT-CAAX). The Endofin FYVE domain (amino acid region Gln739-Lys806) was C-terminally fused with LgBiT (Endofin-LgBiT). Gαs (human, short isoform), Gβ1 (human), Gγ2 (human), and RIC8B (human, isoform 2) plasmids were inserted into pcDNA3.1 or pCAGGS expression plasmid vectors. INS-1 832/3 GLP-1R KO or GIPR KO cells were seeded in 6-well plates and co-transfected with 0.1 μg SNAP-GLP-1R or SNAP-GIPR, 0.5 μg Gαs, Gβ1, and Gγ2, 0.1 μg RIC8B, 0.1 μg CAAX-LgBiT or 0.5 μg Endofin-LgBiT with 0.1 μg or 0.5 μg Nb37-SmBiT, respectively, with 0.8 µg pcDNA3.1 added to the former to equalize DNA content.
All NanoBiT and NanoBRET readings were obtained in a Flexstation 3 plate reader. […] Readings were normalized to well baseline and then to average vehicle-induced signal to establish the agonist-induced effect. AUCs from response curves were calculated for each agonist concentration and fitted to four-parameter curves using Prism 9 (GraphPad). […]

The test system of assay [1] is calcium response in INS-1 832/3 cells. Briefly: Calcium assay, INS-1 832/3 cells. The class given is cell-based, rat. The following applies: for Calcium response, net difference between both receptors: INS-1 832/3. On the procedure: Imaging of INS-1 832/3 cells or whole-islet Ca^2+ dynamics was performed as follows: cells or Matrigel-encased islets from individual animals were loaded with the Ca^2+ responsive dye Cal-520 AM (AAT Bioquest), pre-incubated for 1 hour in KRBH G6, and imaged in MatTek glass bottom dishes every 6 second at 488 nm using a Nikon Eclipse Ti microscope with an ORCA-Flash 4.0 camera (Hamamatsu) and Metamorph software (Molecular Devices) while maintained at 37 °C on a heated stage. Raw fluorescence intensity traces from cell-occupied areas or islet ROIs were extracted using Fiji. Responses were plotted relative to the average fluorescence intensity during the 6 mM glucose baseline period, before agonist addition.
Figure 7. Functional analysis of GLP-1R vs GIPR signaling in beta cells. […] Data are mean ± SEM, compared by paired t tests; *P < .05; ns, nonsignificant.

The test system of assay [2] is SNAP-tagged human GIPR. Briefly: TR-FRET receptor clustering, SNAP-GIPR. The class given is cell-based. The following applies: 100 nM, 37 °C, n = 4. On the procedure: The time-resolved fluorescence resonance energy transfer (TR-FRET) assay was performed as previously described ([24]). INS-1 832/3 SNAP-GLP-1R or SNAP-GIPR cells were labeled in suspension with 40 nM SNAP-Lumi4-Tb and 1 mM SNAP-Surface 649 (New England Biolabs, Hitchin, UK) for 1 hour at room temperature in complete medium. […] TR-FRET was quantified as the ratio of fluorescent signal at 665 nm to that at 616 nm, after subtraction of background signal at each wavelength.
Figure 3. GLP-1R vs GIPR clustering propensities in beta cells. […] Diffusion coefficients for individual ROIs are indicated on each image, with corresponding intensity traces, as well as 2D and fitted 3D autocorrelation maps for each ROI, are also depicted. (B) Average RICS diffusion coefficients for each receptor and treatment for each cell analyzed from n = 4 experiments. (C) GLP-1R clustering kinetics measured by TR-FRET in INS-1 832/3 SNAP-GLP-1R cells treated with 100 nM agonist as indicated, with vehicle-corrected AUCs included; n = 4. (D) GIPR clustering kinetics measured by TR-FRET in INS-1 832/3 SNAP-GIPR cells treated with 100 nM agonist as indicated, with vehicle-corrected AUCs included; n = 4. Data are mean ± SEM, compared by one-way ANOVA with Sidak's test; ****P < .0001; ns: non-significant. […] Best readings: GLP-1R Veh i 2.03, ii 1.56, iii 1.44 μm^2/s; GIPR Veh i 0.80, ii 0.34, iii 0.44 μm^2/s. […]

Assay [3] concerns SNAP-tagged human GIPR. Briefly: DERET internalization assay, INS-1 832/3 SNAP-GIPR cells. Format: cell-based. The following applies: non-cognate agonist GLP-1, or both agonists combined. How it is done:
The diffusion-enhanced resonance energy transfer (DERET) assay was performed as previously described ([21]). The INS-1 832/3 SNAP-GLP-1R or SNAP-GIPR cells were labeled in suspension with Lumi4-Tb (40 nM) for 30 minutes in complete media. After washing, cells were resuspended in HBSS containing 24 µM fluorescein and dispensed into 96-well white plates. A baseline read was serially recorded over 5 minutes using a Flexstation 3 instrument at 37 °C in time-resolved fluorescence resonance energy transfer (TR-FRET) mode using the following settings: λex 340 nm, λem 520 and 620 nm, auto-cutoff, delay 400 µs, integration time 1500 µs. Ligands were then added, after which signal was repeatedly recorded for 30 minutes. Fluorescence signals were expressed ratiometrically after first subtracting signal from wells containing 24 µM fluorescein but no cells. Internalization was quantified as area under the curve (AUC) relative to individual well baseline.
Note that surface expression levels of SNAP-GLP-1R and SNAP-GIPR were similar within these 2 cell models (Supplemental Fig. 1A) ([32]).

For another assay, the target named is SNAP-tagged human GLP-1R (Homo sapiens, UniProt P43220). Briefly: TR-FRET receptor clustering, SNAP-GLP-1R. The conditions noted are these: 100 nM, 37 °C, n = 4. The class given is cell-based.
Sequence of SNAP-tagged human GLP-1R (P43220 24-463): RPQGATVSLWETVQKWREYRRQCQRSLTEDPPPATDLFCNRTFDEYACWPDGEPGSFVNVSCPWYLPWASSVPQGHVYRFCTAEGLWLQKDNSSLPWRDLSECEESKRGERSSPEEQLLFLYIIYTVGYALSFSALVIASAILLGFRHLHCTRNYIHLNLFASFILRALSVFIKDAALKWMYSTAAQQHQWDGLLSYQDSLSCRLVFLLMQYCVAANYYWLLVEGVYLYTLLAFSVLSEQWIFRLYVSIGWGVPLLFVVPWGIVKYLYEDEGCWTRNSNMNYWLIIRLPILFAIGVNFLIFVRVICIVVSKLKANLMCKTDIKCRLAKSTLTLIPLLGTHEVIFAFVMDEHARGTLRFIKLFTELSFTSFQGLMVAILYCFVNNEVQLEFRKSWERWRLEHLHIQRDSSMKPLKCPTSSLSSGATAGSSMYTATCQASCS

In the case of GLP-1(7-36)NH2, the “Recruitment of Nb37 to active GLP-1Rs vs GIPRs within the plasma membrane” value with SNAP-GLP-1R was “no significant differences”. The “Calcium response, net difference between both receptors” value in assay [1] (Cal-520 AM, 100 nM, n = 4) was “zero net difference”. Further, the GIPR clustering entry in the assay with SNAP-tagged human GIPR [2] is “not detectable”. Further, in the assay on SNAP-tagged human GIPR [3], the GIPR internalization entry is recorded as “negligible”.

With GIP(1-42), the GLP-1R clustering entry with SNAP-tagged human GLP-1R was “not detectable”. In addition, in assay [1] (Cal-520 AM, 100 nM, n = 4), the “Calcium response, net difference between both receptors” value is “zero net difference”. Also, the “Calcium response, GIPR compared with GLP-1R, 0-1 minute” value in assay [1] (Cal-520 AM, 100 nM, first minute, n = 4) is recorded as “initial trend for a decreased GIPR compared with GLP-1R response”. For the same substance, the “Calcium response, GIPR compared with GLP-1R, 1-5 minutes” value in assay [1] (Cal-520 AM, 100 nM, following 4 minutes, n = 4) was “this tendency was reversed”. In addition, in assay [1] (summary in discussion), the “Calcium response tendency, GIP vs GLP-1, INS-1 832/3” value is recorded as “tendency toward increased”. Also, the GIPR clustering entry in the assay on SNAP-tagged human GIPR [2] is recorded as “could not be detected”.
